Data reported in the NIST ThermoML archive (doi:10.1016/j.tca.2019.01.021).
± gives the expanded uncertainty stated by the source.

Assay: molar enthalpy of vaporization or sublimation
Conditions: 298.15 K; Crystal; Static calorimetry

molar enthalpy: 28.6 ± 0.598 kcal/mol
SMILES: OCCc1c[nH]c2ccccc12 [2-(1H-indol-3-yl)ethanol]
